# Reference: patent US20240216342A1, “BLOOD CARNITINE-INCREASING AGENT” (KOWA COMPANY, LTD., priority 2021, published 2024)
# Key:
# Assay type in all cases: in vivo, human
# [1] = Blood free carnitine in a fasting state, compound A given orally to NAFLD patients for 48 weeks versus placebo (Example 2); conditions: IR 0.4 mg/day
# Experimental: A study was conducted on an action on blood carnitine in oral administration of the compound A to a non-alcoholic fatty liver disease (NAFLD) patient at 0.4 mg a day for 48 weeks. For the administration of the compound A, an IR preparation (0.4 mg/day, twice a day) was used, and the administration was performed in a fasting state. A comparison was made with placebo administration. Table 3 and FIG. 3 show a process of a ratio of change in concentration of free carnitine in blood in a fasting state in administration of the compound A (IR 0.4 mg/day) to the NAFLD patient for 48 weeks with respect to the value before administration (at 0 weeks) in Example 2.
# [2] = Blood free carnitine in a fasting state, compound A given orally to dyslipidemia patients for 4 weeks (Example 1); conditions: for Ratio of change in free carnitine after administration for 4 weeks with respect to value before administration (at 0 weeks): fasting state, oral
# Experimental: A study was conducted on an action on blood carnitine in oral administration of the compound A to a dyslipidemia patient at 0.2 to 0.8 mg a day for 4 weeks. For the administration of the compound A, an IR preparation (0.2 mg/day, twice a day), 0.4 mg of a CR preparation (once a day) and 0.8 mg of a CR preparation (once a day) were used, and the administration was performed before or after a meal. Table 1 and FIG. 1 show a ratio of change in concentration of free carnitine in blood in a fasting state in administration of the compound A to the dyslipidemia patient for 4 weeks with respect to the value before administration (at 0 weeks) in Example 1.
# [3] = Blood free carnitine after meal (high-fat food) versus before meal, compound A given to dyslipidemia patients for 4 weeks (Example 1)
# Experimental: A study was conducted on an action on blood carnitine in oral administration of the compound A to a dyslipidemia patient at 0.2 to 0.8 mg a day for 4 weeks. For the administration of the compound A, an IR preparation (0.2 mg/day, twice a day), 0.4 mg of a CR preparation (once a day) and 0.8 mg of a CR preparation (once a day) were used, and the administration was performed before or after a meal. Table 2 and FIG. 2 show a process of an amount of change in free carnitine in blood after meal (after intake of high-fat food) with respect to a value before meal in administration of the compound A to the dyslipidemia patient for 4 weeks in Example 1.
structure (smiles),measurement,setting,value
"CC[C@@H](Oc1cccc(CN(CCCOc2ccc(OC)cc2)c2nc3ccccc3o2)c1)C(=O)O [Compound A, (R)-2-[3-[[N-(benzoxazol-2-yl)-N-3-(4-methoxyphenoxy)propyl]aminomethyl]phenoxy]butyric acid]",Time of administration at which the free carnitine increasing action reached the maximum value,[1],12 weeks
same,"Ratio of change in concentration of free carnitine in blood in a fasting state with respect to value before administration (0 weeks), average",[1]; 4 weeks,20.0
same,"Ratio of change in concentration of free carnitine in blood in a fasting state with respect to value before administration (0 weeks), average",[1]; 12 weeks,24.7
same,"Ratio of change in concentration of free carnitine in blood in a fasting state with respect to value before administration (0 weeks), average",[1]; 24 weeks,24.5
same,Effect on concentration of free carnitine in blood in a fasting state compared to placebo (in words),[1]; 48 weeks,increased the concentration of free carnitine in blood in a fasting state as compared to placebo administration
same,"Ratio of change in concentration of free carnitine in blood in a fasting state with respect to value before administration (0 weeks), average",[1]; 48 weeks,20.9
same,Effect on concentration of free carnitine in blood in a fasting state (in words),[2]; 0.2 to 0.8 mg a day,increased the concentration of free carnitine in blood in a dose-dependent manner
same,Ratio of change in free carnitine after administration for 4 weeks with respect to value before administration (at 0 weeks),[2]; CR preparation 0.4 mg/day,19.5
same,Ratio of change in free carnitine after administration for 4 weeks with respect to value before administration (at 0 weeks),[2]; CR preparation 0.8 mg/day,23.71
same,Ratio of change in free carnitine after administration for 4 weeks with respect to value before administration (at 0 weeks),[2]; IR preparation 0.2 mg/day,11.82
same,Effect on concentration of free carnitine in blood after meal compared to before meal (in words),"[3]; 0.2 to 0.8 mg a day, 4 weeks",increased the concentration of free carnitine in blood after meal as compared to the concentration before meal
same,"Amount of change in free carnitine in blood after meal with respect to value before meal, average","[3]; CR 0.4 mg/day (QD) for 4 weeks, 1 h after high-fat meal",2.78 µmol/L
same,"Amount of change in free carnitine in blood after meal with respect to value before meal, average","[3]; CR 0.4 mg/day (QD) for 4 weeks, 2.5 h after high-fat meal",2.65 µmol/L
same,"Amount of change in free carnitine in blood after meal with respect to value before meal, average","[3]; CR 0.4 mg/day (QD) for 4 weeks, 4.5 h after high-fat meal",2.25 µmol/L
same,"Amount of change in free carnitine in blood after meal with respect to value before meal, average","[3]; CR 0.8 mg/day (QD) for 4 weeks, 1 h after high-fat meal",3.11 µmol/L
same,"Amount of change in free carnitine in blood after meal with respect to value before meal, average","[3]; CR 0.8 mg/day (QD) for 4 weeks, 2.5 h after high-fat meal",3.26 µmol/L
same,"Amount of change in free carnitine in blood after meal with respect to value before meal, average","[3]; CR 0.8 mg/day (QD) for 4 weeks, 4.5 h after high-fat meal",2.92 µmol/L
same,"Amount of change in free carnitine in blood after meal with respect to value before meal, average","[3]; IR 0.2 mg/day (BID) for 4 weeks, 1 h after high-fat meal",2.72 µmol/L
same,"Amount of change in free carnitine in blood after meal with respect to value before meal, average","[3]; IR 0.2 mg/day (BID) for 4 weeks, 2.5 h after high-fat meal",2.19 µmol/L
same,"Amount of change in free carnitine in blood after meal with respect to value before meal, average","[3]; IR 0.2 mg/day (BID) for 4 weeks, 4.5 h after high-fat meal",1.79 µmol/L
